Patent publication US20250228863A1, “Methods and Products to Screen and Treat Glioblastoma Multiforme and Other Cancers, Including Breast Cancers, Using A Combination of PI3KINASE Inhibitors With Checkpoint Inhibitors” (GLOBAL CANCER TECHNOLOGY, INC., priority 2022, published 2025)

Experiments:
[1] = orally available; literature statement; cited from earlier work
MCF7 SEMA7A OE cells = test: MCF7 EV and SEMA7A over-expressing cells treated with endocrine therapy and/or PI3K inhibitor; assay type: cell-based, human
Method: Cell Culture Protocol: Cells were plated in 10 cm plates at ˜1 million cells/plate and incubated overnight to allow adherence. Cell lines and media that were used included McCoy's 5a modified media for HER2+ breast cancer cell line SKBR3 cells, and for MDA-MB-231, MDA-MB-468, MCF-7, and HS578t, culture medium was DMEM. Cells were then treated with the PI3K inhibitor: 0 uM (control), 1 uM, or 10 uM. Treated cells incubated for ˜72 hours. After incubation, cells were imaged, then harvested with 0.25% trypsin/EDTA and counted using trypan blue viability stain with Nexcelom Cellometer Mini. The MDA-MB-231 cell line is an epithelial, human breast cancer cell line that was established from a pleural effusion of a patient with metastatic mammary adenocarcinoma.
FIG. 13A, FIG. 13B, and FIG. 13C. […] MCF7EV and SEMA7A OE cells were treated for 48 hours with A) fulvestrant (7.5 nM), B} Alpelisib (1 uM), or C) the combination.
FIG. 14A, FIG. 14B, FIG. 14C, FIG. 14D, and FIG. 14E. SEMA7A-expressing cells are sensitive to both Alpelisib and a novel PI3K inhibitor (GCT.BR.1) FIG. 14A) MCF7 cells treated with vehicle, 1 uM Alpelisib and 1 uM GCT.BR.1. Scalebar=10 microns. FIG. 14B) Quantification of A. FIG. 14C) MCF7 S7 OE spheroids in suspension were treated with vehicle (DMSO), 1 uM Alpelisib or 0.5 uM GCT and stained with Calcein green viability dye after 48 h. […]

## CC1(C)OCCn2c1nc1c(N3CCOCC3)nc(-c3cnc(N)nc3)nc12 [GDC 0084]
[1]
  blood brain barrier permeation: can permeate the blood brain barrier

## C[C@]12CC[C@@H]3c4ccc(O)cc4C[C@@H](CCCCCCCCC[S+]([O-])CCCC(F)(F)C(F)(F)F)[C@H]3[C@@H]1CC[C@@H]2O (stereo partly drawn) [fulvestrant]
MCF7 SEMA7A OE cells; 48 hours, fulvestrant 7.5 nM, Alpelisib 1 uM, FIG. 13
  response of SEMA7A over-expressing cells to treatment: respond poorly

## Cc1nc(NC(=O)N2CCC[C@H]2C(N)=O)sc1-c1ccnc(C(C)(C)C(F)(F)F)c1 [Alpelisib]
MCF7 SEMA7A OE cells; MCF7, 1 uM, FIG. 14
  sensitivity of SEMA7A-expressing cells: sensitive
